Test results from ChEMBL document CHEMBL1201862, “PubChem BioAssay data set” (2004).
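Grown in 96-well plates, cells were treated for 48 hours with each compound at five concentrations. Insufficient inhibition: endpoint recorded as highest concentration tested. Here, GI50 denotes the concentration required for 50% inhibition of growth.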 Calls of active or inactive are those of the source. Rule as the data show it: active = GI50 up to about 1.1 µM and inactive = higher.

Experiments:
Assay in all cases: NCI anticancer screen, dose series, 48 h
[1] = tested on: A549
[2] = tested on: CAKI-1
[3] = tested on: CCRF-CEM
[4] = tested on: COLO 205
[5] = tested on: DMS-114
[6] = tested on: DMS-273
[7] = tested on: EKVX
[8] = tested on: HCT-15
[9] = tested on: HL-60
[10] = tested on: HT-29
[11] = tested on: IGROV-1
[12] = tested on: K562
[13] = tested on: KM12
[14] = tested on: LOX IMVI
[15] = tested on: M14
[16] = tested on: M19-MEL
[17] = tested on: MOLT-4
[18] = tested on: NCI-H226
[19] = tested on: NCI-H23
[20] = tested on: NCI-H522
[21] = tested on: OVCAR-3
[22] = tested on: OVCAR-8
[23] = tested on: RPMI-8226
[24] = tested on: RXF 393
[25] = tested on: SF-268
[26] = tested on: SF-295
[27] = tested on: SF-539
[28] = tested on: SK-MEL-28
[29] = tested on: SK-MEL-5
[30] = tested on: SK-OV-3
[31] = tested on: SN12C
[32] = tested on: SNB-19
[33] = tested on: SNB-75
[34] = tested on: SW-620
[35] = tested on: TK-10
[36] = tested on: UACC-257
[37] = tested on: UACC-62
[38] = tested on: UO-31
[39] = tested on: 786-0
[40] = tested on: A498
[41] = tested on: ACHN
[42] = tested on: BT-549
[43] = tested on: DU-145
[44] = tested on: HCC 2998
[45] = tested on: HCT-116
[46] = tested on: HOP-62
[47] = tested on: HOP-92
[48] = tested on: Hs-578T
[49] = tested on: MCF7
[50] = tested on: MDA-MB-231
[51] = tested on: MDA-MB-435
[52] = tested on: MDA-N
[53] = tested on: Malme-3M
[54] = tested on: NCI-H460
[55] = tested on: NCI/ADR-RES
[56] = tested on: OVCAR-4
[57] = tested on: OVCAR-5
[58] = tested on: PC-3
[59] = tested on: SK-MEL-2
[60] = tested on: SR
[61] = tested on: T47D
[62] = tested on: U-251
[63] = tested on: KM-20L2
[64] = tested on: LXFL 529
[65] = tested on: SNB-78

SMILES: O=C1N[C@@H]2CCC[C@@H]2[C@@H]1c1ccc(Cl)cc1
- GI50 [1]: > 100 µM (inactive)
- GI50 [2]: > 100 µM (inactive)
- GI50 [3]: > 100 µM (inactive)
- GI50 [4]: > 100 µM (inactive)
- GI50 [5]: 70 µM (inactive)
- GI50 [6]: > 100 µM (inactive)
- GI50 [7]: > 100 µM (inactive)
- GI50 [8]: > 100 µM
- GI50 [9]: > 100 µM (inactive)
- GI50 [10]: > 100 µM (inactive)
- GI50 [11]: > 100 µM (inactive)
- GI50 [12]: > 100 µM (inactive)
- GI50 [13]: > 100 µM (inactive)
- GI50 [14]: > 100 µM (inactive)
- GI50 [15]: > 100 µM (inactive)
- GI50 [16]: > 100 µM (inactive)
- GI50 [17]: > 100 µM (inactive)
- GI50 [18]: 87.9 µM (inactive)
- GI50 [19]: > 100 µM (inactive)
- GI50 [20]: > 100 µM (inactive)
- GI50 [21]: > 100 µM (inactive)
- GI50 [22]: > 100 µM (inactive)
- GI50 [23]: > 100 µM (inactive)
- GI50 [24]: > 100 µM (inactive)
- GI50 [25]: > 100 µM (inactive)
- GI50 [26]: > 100 µM (inactive)
- GI50 [27]: > 100 µM (inactive)
- GI50 [28]: > 100 µM (inactive)
- GI50 [29]: > 100 µM (inactive)
- GI50 [30]: > 100 µM (inactive)
- GI50 [31]: > 100 µM (inactive)
- GI50 [32]: > 100 µM (inactive)
- GI50 [33]: > 100 µM (inactive)
- GI50 [34]: > 100 µM (inactive)
- GI50 [35]: > 100 µM (inactive)
- GI50 [36]: > 100 µM (inactive)
- GI50 [37]: > 100 µM (inactive)
- GI50 [38]: 65.2 µM (inactive)

SMILES: CCOC(=O)c1nc2c(nc1C(=O)OCC)C(=O)c1ccccc1C2=O
- GI50 [39]: 0.839 µM (active)
- GI50 [40]: 1.87 µM (inactive)
- GI50 [1]: 0.594 µM (active)
- GI50 [41]: 0.757 µM (active)
- GI50 [42]: 0.471 µM (active)
- GI50 [2]: 1 µM (active)
- GI50 [3]: 0.601 µM (active)
- GI50 [4]: 1.82 µM (inactive)
- GI50 [43]: 0.828 µM (active)
- GI50 [7]: 1.38 µM (inactive)
- GI50 [44]: 1.35 µM (inactive)
- GI50 [45]: 0.875 µM (active)
- GI50 [8]: 1.92 µM
- GI50 [9]: 0.427 µM (active)
- GI50 [46]: 0.618 µM (active)
- GI50 [47]: 5.36 µM (inactive)
- GI50 [10]: 2.5 µM (inactive)
- GI50 [48]: 0.236 µM (active)
- GI50 [11]: 2.75 µM (inactive)
- GI50 [12]: 0.348 µM (active)
- GI50 [13]: 1.45 µM (inactive)
- GI50 [14]: 0.353 µM (active)
- GI50 [15]: 0.585 µM (active)
- GI50 [49]: 0.34 µM (active)
- GI50 [50]: 2.16 µM (inactive)
- GI50 [51]: 0.246 µM (active)
- GI50 [52]: 0.248 µM (active)
- GI50 [17]: 1.71 µM (inactive)
- GI50 [53]: 0.174 µM (active)
- GI50 [18]: 0.569 µM (active)
- GI50 [19]: 0.31 µM (active)
- GI50 [54]: 1.59 µM (inactive)
- GI50 [20]: 0.671 µM (active)
- GI50 [55]: 1.17 µM (inactive)
- GI50 [21]: 0.37 µM (active)
- GI50 [56]: 0.637 µM (active)
- GI50 [57]: 0.562 µM (active)
- GI50 [22]: 1.05 µM (active)
- GI50 [58]: 2.9 µM (inactive)
- GI50 [23]: 0.753 µM (active)
- GI50 [24]: 0.649 µM (active)
- GI50 [25]: 0.818 µM (active)
- GI50 [26]: 0.359 µM (active)
- GI50 [27]: 0.473 µM (active)
- GI50 [28]: 1.03 µM (active)
- GI50 [59]: 0.394 µM (active)
- GI50 [29]: 0.407 µM (active)
- GI50 [30]: 1.59 µM (inactive)
- GI50 [31]: 0.201 µM (active)
- GI50 [32]: 0.446 µM (active)
- GI50 [33]: 0.479 µM (active)
- GI50 [60]: 0.263 µM (active)
- GI50 [34]: 0.881 µM (active)
- GI50 [61]: 3.85 µM (inactive)
- GI50 [35]: 2.75 µM (inactive)
- GI50 [62]: 0.703 µM (active)
- GI50 [36]: 0.431 µM (active)
- GI50 [37]: 0.288 µM (active)
- GI50 [38]: 0.333 µM (active)

SMILES: COc1ccc2c(c1)CC[C@@H]1C2CC[C@]2(C)C(=O)N(N)C(=O)CC12 (some centres not stated)
- GI50 [39]: > 100 µM (inactive)
- GI50 [40]: 35.8 µM (inactive)
- GI50 [41]: > 100 µM (inactive)
- GI50 [3]: 80 µM (inactive)
- GI50 [4]: > 100 µM (inactive)
- GI50 [5]: 44.5 µM (inactive)
- GI50 [45]: > 100 µM (inactive)
- GI50 [46]: > 100 µM (inactive)
- GI50 [47]: > 100 µM (inactive)
- GI50 [10]: > 100 µM (inactive)
- GI50 [11]: > 100 µM (inactive)
- GI50 [12]: 32.6 µM (inactive)
- GI50 [63]: 32.9 µM (inactive)
- GI50 [13]: > 100 µM (inactive)
- GI50 [64]: 52.6 µM (inactive)
- GI50 [15]: 78.3 µM (inactive)
- GI50 [16]: > 100 µM (inactive)
- GI50 [17]: 44.4 µM (inactive)
- GI50 [53]: > 100 µM (inactive)
- GI50 [19]: > 100 µM (inactive)
- GI50 [54]: 37.2 µM (inactive)
- GI50 [20]: 48.8 µM (inactive)
- GI50 [21]: > 100 µM (inactive)
- GI50 [56]: > 100 µM (inactive)
- GI50 [57]: > 100 µM (inactive)
- GI50 [23]: 28.8 µM (inactive)
- GI50 [24]: > 10 µM (inactive)
- GI50 [25]: > 100 µM (inactive)
- GI50 [26]: > 100 µM (inactive)
- GI50 [28]: > 100 µM (inactive)
- GI50 [59]: > 100 µM (inactive)
- GI50 [30]: > 100 µM (inactive)
- GI50 [32]: > 100 µM (inactive)
- GI50 [33]: > 100 µM (inactive)
- GI50 [65]: 77.4 µM (inactive)
- GI50 [60]: 38 µM (inactive)
- GI50 [62]: > 100 µM (inactive)
- GI50 [36]: 35.6 µM (inactive)
- GI50 [37]: 80.9 µM (inactive)
- GI50 [38]: 72.9 µM (inactive)
